Assay results: patent publication US20040142979A1, “Heteroarylsulfonylmethyl hydroxamic acids and amides and their use as protease inhibitors” (priority 2002, published 2004)

Columns and labels:
[1] = biological target: T1, Human recombinant MMP-9 (Homo sapiens, UniProt P14780); assay: In vitro MMP inhibition analysis (fluorogenic peptide substrate), MMP-9; assay type: biochemical; settings: human recombinant enzyme; 4 μM substrate (A); apparent Ki without substrate correction
T1 construct: made in house; host or cells: MMP-9-transfected HT1080 cells (spent media)
T1 sequence (P14780 107-707 limits assumed): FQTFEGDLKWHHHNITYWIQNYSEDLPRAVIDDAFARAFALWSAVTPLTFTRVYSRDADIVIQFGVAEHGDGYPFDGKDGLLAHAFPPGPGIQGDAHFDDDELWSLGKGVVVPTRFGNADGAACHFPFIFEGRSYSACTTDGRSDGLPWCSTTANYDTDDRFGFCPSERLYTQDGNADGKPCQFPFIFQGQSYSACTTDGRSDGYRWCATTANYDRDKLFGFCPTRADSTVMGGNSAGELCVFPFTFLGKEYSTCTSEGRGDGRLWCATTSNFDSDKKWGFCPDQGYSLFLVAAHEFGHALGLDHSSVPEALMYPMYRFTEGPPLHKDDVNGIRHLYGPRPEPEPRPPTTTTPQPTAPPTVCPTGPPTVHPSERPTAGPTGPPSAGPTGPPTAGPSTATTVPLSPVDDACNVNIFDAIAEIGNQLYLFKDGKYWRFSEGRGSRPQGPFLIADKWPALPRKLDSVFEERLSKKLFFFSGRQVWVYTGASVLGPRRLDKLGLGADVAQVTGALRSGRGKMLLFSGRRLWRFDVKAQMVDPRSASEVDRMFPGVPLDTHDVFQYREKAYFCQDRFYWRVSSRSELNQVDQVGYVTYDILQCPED
Procedure: (§1) Several compounds and salts were analyzed in an in vitro assay to determine their ability to inhibit the MMP cleavage of peptide substrates. Inhibition constant (Ki) were calculated from the assayed compound-MMP interactions.
(§2) Human recombinant MMP-1, MMP-2, MMP-9, MMP-13, and MMP-14 were used in this assay. All enzymes were prepared in Assignee's laboratories following usual laboratory procedures. Protocols for the preparation and use of these enzymes are available in the scientific literature. See, e.g., Enzyme Nomenclature (Academic Press, San Diego, Calif., 1992) (and the citations therein). See also, Freije et al., J. Biol. Chem., 269(24), 16766-16773 (1994).
The MMP-9 proenzyme was purified by gelatin Sepharose chromatography from spent media of MMP-9-transfected HT1080 cells provided by Dr. Howard Welgus of Washington University (St. Louis, Mo.).
(§3) All MMPs were activated using 4-aminophenylmercuric acetate (“APMA”, Sigma Chemical, St. Louis, Mo.) or trypsin. MMP-9 also was activated using human recombinant MMP-3 (purified in Assignee's laboratory following standard cloning and purification techniques).
(§4) The following fluorogenic, methoxycoumarin-containing polypeptide substrate (A) was used in the MMP inhibition assays:
(§5) MCA-ArgProLeuGlyLeuDpaAlaArgGluArgNH2 (A)
(§6) “MCA” is 7-methoxycoumarin-4-yl acetyl. Substrate (A) was prepared Assignee's laboratory. In the absence of MMP inhibitory activity, the substrate is cleaved at the Gly-Leu peptide bond. This cleavage separates the highly fluorogenic peptide from the 2,4-dinitrophenyl quencher, thus resulting in increase of fluorescent intensity.
(§7) The stock solutions of the assayed compounds and salts were prepared in 1% dimethyl sulfoxide (DMSO). These stock solutions were diluted in Buffer A (100 mM Tris-HCl, 100 mM NaCl, 10 mM CaCl2, 0.05% polyoxyethylene 23 lauryl ether, pH 7.5) to obtain solutions with different compound concentrations, i.e., assay solutions with different concentrations of the assayed MMP inhibitory compound. The experiment controls contained the same amount of Buffer A/DMSO as the assayed sample, but contained none of the tested compound or salt.
(§8) The assays from which the Ki determinations were made were performed as follows. The assayed compound samples were incubated in separate wells of untreated white polystyrene plates (Nunc Nalgene International, Rochester, N.Y.), and analyzed on a Tecan SpectraFlour Plus plate reader. The excitation wavelength was 330 nm, and the emission wavelength -420 nm. All samples (assayed compounds and controls) were incubated in separate plate wells at room temperature for 1 hr in the presence of 4 μM of MMP substrate (A). In the absence of MMP inhibitory activity, substrate (A) was cleaved at the Gly-Leu bond resulting in an increase of relative fluorescence. Inhibition was observed as a reduced rate of this increase in relative fluorescence. […] This protocol is a modification of method by Knight et al., FEBS Lett., 296(3), 263-266 (1992). Apparent inhibitory constants were determined by non-linear regression of reaction velocity as a function of inhibitor and enzyme concentration using Morrison's equation, as described by Kuzmic, P., et al., Anal. Biochem., 286(1):45-50 (2000). Modifications were made in the non-linear regression method to allow a common control reaction rate and effective enzyme concentration to be shared between all dose-response relationships on a given assay plate. Since the substrate concentration was chosen to be at or below the Km, the apparent Ki's from this analysis were reported as Ki's without correction for the influence of substrate.
(§9) The above protocols were used to determine MMP inhibition Ki constants for the compounds in Examples 1, 2, and 4-42 above. All Ki values in Table 3 are given in nM units.

[2] = biological target: T2, Human recombinant MMP-2 (Homo sapiens, UniProt P08253); assay: In vitro MMP inhibition analysis (fluorogenic peptide substrate), MMP-2; assay type: biochemical; settings: human recombinant enzyme; 4 μM substrate (A); apparent Ki without substrate correction
T2 construct: made in house; host or cells: MMP-2-transfected p2AHT2 cells
T2 sequence (P08253 110-660): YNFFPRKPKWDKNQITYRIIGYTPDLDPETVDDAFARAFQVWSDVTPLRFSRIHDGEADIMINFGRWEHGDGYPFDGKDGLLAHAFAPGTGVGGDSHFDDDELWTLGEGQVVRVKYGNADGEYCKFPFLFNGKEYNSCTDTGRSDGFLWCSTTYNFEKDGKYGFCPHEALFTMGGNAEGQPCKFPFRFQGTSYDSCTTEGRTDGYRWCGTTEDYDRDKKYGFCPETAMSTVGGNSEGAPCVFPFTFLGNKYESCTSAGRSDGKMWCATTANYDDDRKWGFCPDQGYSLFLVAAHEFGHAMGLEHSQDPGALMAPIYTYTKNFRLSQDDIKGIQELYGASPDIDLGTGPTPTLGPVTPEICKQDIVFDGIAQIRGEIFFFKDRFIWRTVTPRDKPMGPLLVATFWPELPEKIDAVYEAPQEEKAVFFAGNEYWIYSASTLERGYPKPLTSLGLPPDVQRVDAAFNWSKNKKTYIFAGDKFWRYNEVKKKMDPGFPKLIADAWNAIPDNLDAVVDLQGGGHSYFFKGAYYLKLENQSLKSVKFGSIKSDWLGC
Procedure: as §1, §2
The MMP-2 proenzyme was purified by gelatin Sepharose chromatography from MMP-2- transfected p2AHT2 cells provided by Dr. Gregory Goldberg of Washington University (St. Louis, Mo.).
as §3, §4, §5, §6, §7, §8, §9

[3] = biological target: T3, Human recombinant MMP-14 (Homo sapiens, UniProt P50281); assay: In vitro MMP inhibition analysis (fluorogenic peptide substrate), MMP-14; assay type: biochemical; settings: human recombinant catalytic domain; 4 μM substrate (A); apparent Ki without substrate correction
T3 construct: The catalytic domain enzyme was expressed in E. Coli inclusion bodies; made in house
Procedure: as §1, §2
The MMP-14 full length cDNA was provided by Dr. Gregory Goldberg of Washington University (St. Louis, Mo.). The catalytic domain enzyme was expressed in E. Coli inclusion bodies, solubilized in urea, purified on a preparative […] reverse phase HPLC column, and then refolded in the presence of zinc acetate and purified for use.
as §3, §4, §5, §6, §7, §8, §9

[4] = biological target: T4, Human recombinant MMP-1 (Homo sapiens, UniProt P03956); assay: In vitro MMP inhibition analysis (fluorogenic peptide substrate), MMP-1; assay type: biochemical; settings: human recombinant enzyme; 4 μM substrate (A); apparent Ki without substrate correction
T4 construct: made in house; host or cells: MMP-1-transfected HT-1080 cells (spent media)
T4 sequence (P03956 100-469): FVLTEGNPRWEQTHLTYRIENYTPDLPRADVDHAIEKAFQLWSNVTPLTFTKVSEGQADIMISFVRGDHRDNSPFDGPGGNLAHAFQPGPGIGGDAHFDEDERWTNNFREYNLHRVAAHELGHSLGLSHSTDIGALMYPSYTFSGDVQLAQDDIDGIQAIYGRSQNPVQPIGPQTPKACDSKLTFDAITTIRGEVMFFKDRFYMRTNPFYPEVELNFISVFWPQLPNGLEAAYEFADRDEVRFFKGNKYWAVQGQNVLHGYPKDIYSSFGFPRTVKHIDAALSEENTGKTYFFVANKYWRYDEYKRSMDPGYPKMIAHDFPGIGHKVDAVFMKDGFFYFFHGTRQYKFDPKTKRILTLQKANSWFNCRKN
Procedure: as §1, §2
The MMP-1 proenzyme was purified from the spent media of MMP-1-transfected HT-1080 cells provided by Dr. Harold Welgus of Washington University (St. Louis, Mo.). The protein was purified on a zinc chelating column.
as §3, §4, §5, §6, §7, §8, §9

[5] = system: advanced, rapidly progressive, treatment-refractory solid tumor cancers (colorectal, pancreatic, ovarian, and prostate); settings: cited from earlier work

Ki [1] [µM]	Ki [2] [µM]	Ki [3] [µM]	Ki [4] [µM]	SMILES	effect on cancer-specific antigens used as surrogate markers for biological activity ([5]; Phase I/II studies, patients with advanced solid tumor cancers)	most common drug-related toxicity ([5]; clinical trials, patients)
> 10	4.97	> 10	> 10	O=C(c1ccc(-c2ccc(S(=O)(=O)C3(C(=O)NO)CCOCC3)cn2)cc1)N1CCCCC1 [Example 77]		
> 10	1.76	> 10	> 10	O=C(c1ccc(-c2ccc(S(=O)(=O)C3(C(=O)NO)CCOCC3)cn2)cc1)N1CCOCC1 [Example 80]		
				CNC(=O)[C@@H](NC(=O)[C@H](CC(C)C)[C@H](O)C(=O)NO)C(C)(C)C [Marimastat]	dose-related reduction in the rise of cancer-specific antigens	musculoskeletal pain and stiffness
